{"source": "patent US5858692A", "about": "“Polychlorinated biphenyls (PCB) immunoassay method, its components and a kit for use in performing the same” (ENSYS, Inc., priority 1995, dated 1999)", "tested_on": "monoclonal F40-11G6 antibody (anti-PCB monoclonal antibody)", "experiment": "1 ppm PCB immunoassay (competitive ELISA), cross-reactivity of compounds found at PCB sites or of similar structure", "assay_type": "binding, Balb/c mice", "details": "for PERCENT CROSS-REACTIVITY: calculated percent cross-reactivity in the 1 ppm PCB immunoassay; for CONCENTRATION GIVING A POSITIVE RESULT; SOIL EQUIVALENT / CON[…] A POSITIVE RESULT; SOIL EQUIVALENT: positive compared to the kit standard (AROCLOR 1248, 0.7 ppm) in the 1 ppm PCB immunoassay", "experimental": "The immunoassay of the present invention is performed according to the following procedure. Monoclonal anti-PCB antibody is immobilized in an assay vessel, or other solid support, preferably to the bottom of a polystyrene tube, at a concentration, of from 0.005 to 20 μg/tube, preferably 0.1 to 0.4 μg/tube. The concentration and affinity of the antibody for the sample molecules and reporter reagent molecules directly influences the overall sensitivity of the final method.\nAntibody coated tubes were prepared by passively coating polystyrene (12×75 mm, NUNC) tubes with the monoclonal F40-11G6 antibody diluted in PBS and incubating overnight.\n10 g of a soil sample were placed in an extraction vial containing 20 mL of methanol and 5 steel pellets (6mm) and the vial and its contents shaken for 1 minute to disperse the soil particles and extract the PCB. The sample was then filtered to clarify the sample using a filter of glass fiber and 0.45μ Teflon. 45 uL of the clarified filtrate sample was mixed with 955 μl of 10 mM PBS (pH=7.4) and the resulting mixture added to lyophilized enzyme conjugate reagent (0.3 μg) and mixed. At the same time, 2×45 uL of the AROCLOR 1248 standard are similarly treated. The sample and the two standards were then poured into three identical antibody coated tubes, respectively, and the resulting solution mixed. The resulting solution was incubated for 10 minutes at ambient temperature and then washed 4× with a wash buffer (detergent-saline solution). 250 uL of tetramethylbenzidene solution (KP Laboratories, Cat. No. 50-76-02) was added along with 250 uL of hydrogen peroxide solution (KPL, Cat. No. 50-65-02) and the resultant solution mixed. After incubating for 2.5 minutes the color development reaction was stopped with 250 uL of stop solution (1M sulfuric acid).\nThe optical density (OD) of the test sample was compared to the OD of the AROCLOR 1248 standard (0.7 ppm) which was tested simultaneously with the sample. If the sample OD is less than the standard OD, the sample contains greater than 1 ppm PCBs. If the sample OD is greater than the standard OD, the sample contains less than 1 ppm PCBs. Other concentration ranges can be assessed by diluting the test samples with suitable diluents, as long as they are non-reactive with the components of the assay.\nThese compounds were tested for their reactivity with the present 1 ppm PCB immunoassay. […] Overall, the compounds were each less than 1% cross-reactive, with one exception at 2%, indicating high-specificity for PCBs in the present method.", "data": [{"molecule": "Clc1ccc(Cl)c(Cl)c1", "note": "[1,2,4-TRICHLOROBENZENE]", "values": [{"measurement": "PERCENT CROSS-REACTIVITY", "value": "< 1", "unit": "%"}, {"measurement": "CONCENTRATION GIVING A POSITIVE RESULT; SOIL EQUIVALENT", "value": "100-1,000 PPM"}]}, {"molecule": "Clc1cccc2ccccc12", "note": "[1-CHLORONAPHTHALENE]", "values": [{"measurement": "PERCENT CROSS-REACTIVITY", "value": "< 0.01", "unit": "%"}, {"measurement": "CONCENTRATION GIVING A POSITIVE RESULT; SOIL EQUIVALENT", "value": "> 10,000 PPM"}]}, {"molecule": "Clc1cc(Cl)c(-c2ccc(-c3ccccc3)cc2)c(Cl)c1", "note": "[2,4,6-TRICHLOR-p-TERPHENYL]", "values": [{"measurement": "PERCENT CROSS-REACTIVITY", "value": "< 0.01", "unit": "%"}, {"measurement": "CONCENTRATION GIVING A POSITIVE RESULT; SOIL EQUIVALENT", "value": "> 10,000 PPM"}]}, {"molecule": "Oc1c(Cl)cc(Cl)c2ccccc12", "note": "[2,4-DICHLORO-1-NAPTHOL]", "values": [{"measurement": "PERCENT CROSS-REACTIVITY", "value": 2, "unit": "%"}, {"measurement": "CONCENTRATION GIVING A POSITIVE RESULT; SOIL EQUIVALENT", "value": 50, "unit": "PPM"}]}, {"molecule": "O=S(=O)(Oc1ccc(Cl)cc1Cl)c1ccccc1", "note": "[2,4-DICHLOROPHENYL BENZENESULFONATE]", "values": [{"measurement": "PERCENT CROSS-REACTIVITY", "value": "< 1", "unit": "%"}, {"measurement": "CONCENTRATION GIVING A POSITIVE RESULT; SOIL EQUIVALENT", "value": "100-1,000 PPM"}]}, {"molecule": "O=C(O)COc1ccc(Cl)cc1Cl", "note": "[2,4-D]", "values": [{"measurement": "PERCENT CROSS-REACTIVITY", "value": "< 0.1", "unit": "%"}, {"measurement": "CONCENTRATION GIVING A POSITIVE RESULT; SOIL EQUIVALENT", "value": "1,000-10,000 PPM"}]}, {"molecule": "Clc1c2ccccc2c(Cl)c2ccccc12", "note": "[9,10-DICHLOROANTHRACENE, 9,10-DICHLORO-ANTHRACENE]", "values": [{"measurement": "PERCENT CROSS-REACTIVITY", "value": "< 0.01", "unit": "%"}, {"measurement": "CONCENTRATION GIVING A POSITIVE RESULT; SOIL EQUIVALENT", "value": "> 10,000 PPM"}]}, {"molecule": "c1ccccc1", "note": "[BENZENE]", "values": [{"measurement": "PERCENT CROSS-REACTIVITY", "value": "< 0.01", "unit": "%"}, {"measurement": "CON[…] A POSITIVE RESULT; SOIL EQUIVALENT", "value": "> 10,000 PPM"}]}, {"molecule": "COC(=O)c1cc(Oc2ccc(Cl)cc2Cl)ccc1[N+](=O)[O-]", "note": "[BIFENOX]", "values": [{"measurement": "PERCENT CROSS-REACTIVITY", "value": "< 1", "unit": "%"}, {"measurement": "CONCENTRATION GIVING A POSITIVE RESULT; SOIL EQUIVALENT", "value": "100-1,000 PPM"}]}, {"molecule": "Clc1c(Cl)c(Cl)c(Cl)c(Cl)c1Cl", "note": "[HEXACHLOROBENZENE]", "values": [{"measurement": "PERCENT CROSS-REACTIVITY", "value": "< 0.01", "unit": "%"}, {"measurement": "CONCENTRATION GIVING A POSITIVE RESULT; SOIL EQUIVALENT", "value": "> 10,000 PPM"}]}, {"molecule": "ClCCl", "note": "[METHYLENE CHLORIDE]", "values": [{"measurement": "PERCENT CROSS-REACTIVITY", "value": "< 0.01", "unit": "%"}, {"measurement": "CON[…] A POSITIVE RESULT; SOIL EQUIVALENT", "value": "> 10,000 PPM"}]}, {"molecule": "c1ccc2ccccc2c1", "note": "[NAPHTHALENE]", "values": [{"measurement": "PERCENT CROSS-REACTIVITY", "value": "< 0.01", "unit": "%"}, {"measurement": "CONCENTRATION GIVING A POSITIVE RESULT; SOIL EQUIVALENT", "value": "> 10,000 PPM"}]}, {"molecule": "Clc1ccc(C(c2ccccc2Cl)C(Cl)(Cl)Cl)cc1", "note": "(centres unmarked) [O,P-DDT]", "values": [{"measurement": "PERCENT CROSS-REACTIVITY", "value": "< 0.01", "unit": "%"}, {"measurement": "CONCENTRATION GIVING A POSITIVE RESULT; SOIL EQUIVALENT", "value": "> 10,000 PPM"}]}, {"molecule": "Clc1cc(Cl)c(Cl)c(Cl)c1Cl", "note": "[PENTACHLOROBENZENE]", "values": [{"measurement": "PERCENT CROSS-REACTIVITY", "value": "< 0.01", "unit": "%"}, {"measurement": "CONCENTRATION GIVING A POSITIVE RESULT; SOIL EQUIVALENT", "value": "> 10,000 PPM"}]}, {"molecule": "Oc1c(Cl)c(Cl)c(Cl)c(Cl)c1Cl", "note": "[PENTACHLOROPHENOL]", "values": [{"measurement": "PERCENT CROSS-REACTIVITY", "value": "< 0.01", "unit": "%"}, {"measurement": "CONCENTRATION GIVING A POSITIVE RESULT; SOIL EQUIVALENT", "value": "> 10,000 PPM"}]}, {"molecule": "CC(Oc1cc(Cl)c(Cl)cc1Cl)C(=O)O", "note": "(centres unmarked) [SILVEX]", "values": [{"measurement": "PERCENT CROSS-REACTIVITY", "value": "< 1", "unit": "%"}, {"measurement": "CONCENTRATION GIVING A POSITIVE RESULT; SOIL EQUIVALENT", "value": "100-1,000 PPM"}]}, {"molecule": "O=S(=O)(c1ccc(Cl)cc1)c1cc(Cl)c(Cl)cc1Cl", "note": "[TETRADIFON]", "values": [{"measurement": "PERCENT CROSS-REACTIVITY", "value": "< 10", "unit": "%"}, {"measurement": "CONCENTRATION GIVING A POSITIVE RESULT; SOIL EQUIVALENT", "value": "10-100 PPM"}]}, {"molecule": "ClC=C(Cl)Cl", "note": "[TRICHLOROETHYLENE]", "values": [{"measurement": "PERCENT CROSS-REACTIVITY", "value": "< 0.01", "unit": "%"}, {"measurement": "CONCENTRATION GIVING A POSITIVE RESULT; SOIL EQUIVALENT", "value": "> 10,000 PPM"}]}, {"molecule": "XYLENES", "values": [{"measurement": "PERCENT CROSS-REACTIVITY", "value": "< 0.01", "unit": "%"}, {"measurement": "CONCENTRATION GIVING A POSITIVE RESULT; SOIL EQUIVALENT", "value": "> 10,000 PPM"}]}]}
